# Read-outs that look alike come from different tables or passages of the source.
# Legend:
# [1] = source not stated; cited from earlier work
# [2] = design: method as in Huang et al., 2005; conditions: rats; ref Huang et al., 2005; cited from earlier work
# [3] = design: method as in Lu et al., 2010; conditions: humans, 60 mg of scutellarin taken orally; ref Lu et al., 2010; cited from earlier work
# [4] = In vivo lymphatic transport in anesthetized mesenteric lymph duct-cannulated rats; design: species or system rat; conditions: scutellarin 25 mg/kg intragastric, anesthetized female rats
# [5] = design: method as in Marina Shamis and Shabat, 2003; Ma et al., 2015; conditions: Figure 2; ref Marina Shamis and Shabat, 2003; Ma et al., 2015; cited from earlier work
# [6] = cited from earlier work
# [7] = Oral bioavailability / pharmacokinetic study in conscious female S-D rats (plasma scutellarin by UHPLC-MS/MS); conditions: Sprague-Dawley (S-D), rat, in vivo
# Description: Scutellarin exposure after oral administration of scutellarin and prodrugs was detected in conscious female S-D rats. The rats were fasted for 12 h before the experiment and divided into three groups (n = 5 each group) randomly: scutellarin solution (25 mg/kg), Scu-Me-C5-TG solution (62.5 mg/kg equivalent to Scu), Scu-Me-C5-βMe-TG solution (62.5 mg/kg equivalent to Scu). Blood samples (0.5 mL) were collected from 5 min before administration to up to 24 h post-dosing and centrifuged at 16,000 rpm for 15 min to separate plasma. 100 μL plasma was added into 900 μL methanol and vortexed for 5 min, then centrifuged at 16,000 rpm for 15 min. The supernatant was sampled and used for UHPLC-MS/MS detection. The pharmacokinetic parameters were calculated by DAS 2.0 software.
structure (smiles),measurement,setting,value
O=C(O)[C@H]1O[C@@H](Oc2cc3oc(-c4ccc(O)cc4)cc(=O)c3c(O)c2O)[C@H](O)[C@@H](O)[C@@H]1O [Scutellarin],pKa,[1],3-5
same,oral bioavailability,[2],10.6%
same,Plasma Cmax,[3],< 5.0 ng/mL
same,drug in collected mesenteric lymph (mass spectrometry),[4],failed to reach the limit of quantification
same,water solubility,[5],20 µg/mL
same,Log P,[6]; source not stated,−2.56
CCCCCCCCCCCCCCCC(=O)OCC(COC(=O)CCCCCCCCCCCCCCC)OC(=O)CC(C)CC(=O)Oc1ccc(-c2cc(=O)c3c(O)c(O)c(O[C@@H]4O[C@H](C(=O)OC)[C@@H](O)[C@H](O)[C@H]4O)cc3o2)cc1 (stereo partly shown) [Scu-Me-C5-βMe-TG],F rel,[7],245.2%
same,"maximum plasma concentration (Cmax), fold of the parent drug",[7],2.11 fold
same,"relative oral bioavailability (Frel), fold of scutellarin",[7],2.45 fold
CC[C@@]1(O)C(=O)OCc2c1cc1n(c2=O)Cc2cc3c(CN(C)C)c(O)ccc3nc2-1 [Topotecan],Log P,"[6]; ref Wang et al., 2017",0.8
"CCCCCCCCCCCCCCCC(=O)OCC(COC(=O)CCCCCCCCCCCCCCC)OC(=O)CCCC(=O)Oc1ccc(-c2cc(=O)c3c(O)c(O)c(O[C@@H]4O[C@H](C(=O)OC)[C@@H](O)[C@H](O)[C@H]4O)cc3o2)cc1 [Scu-Me-C5-TG, 1,3-bis(palmitoyloxy)propan-2-yl (4-(5,6-dihydroxy-4-oxo-7-(((2S,3R,4S,5S,6S)-3,4,5-trihydroxy-6-(methoxycarbonyl)tetrahydro-2H-pyran-2-yl)oxy)-4H-chromen-2-yl)phenyl) glutarate]",F rel,[7],223.8%
same,"maximum plasma concentration (Cmax), fold of the parent drug",[7],1.72 fold
same,"relative oral bioavailability (Frel), fold of scutellarin",[7],2.24 fold

# Source: article PMC8330727, “Triglyceride-mimetic prodrugs of scutellarin enhance oral bioavailability by promoting intestinal lymphatic transport and avoiding first-pass metabolism” (Drug Delivery, 2021)
